Assay type in all cases: cell-based
Experiment [1] has as its system Carbapenem-resistant Acinetobacter A514 strain. Kind of experiment: MIC of test compound combined with a plurality of β-lactamase inhibitors. How it is done:
(§1) By using a broth microdilution method, the combinational effect of a test compound and a plurality of β-lactamase inhibitors was evaluated.
(§2) The evaluation test for antibacterial activity was performed in the same manner as in Test Example 1.
(§3) As bacterial strains, Carbapenem-resistant Acinetobacter A514 and A515 strains were used.

Experiment [2] relates to Carbapenem-resistant Acinetobacter A515 strain. Described as above. How it is done: as §1, §2, §3
Experiment [3] concerns Klebsiella pneumoniae Y-1133 strain producing NDM-1, OXA-48, and CTX-M-15 (strain C). In words: MIC of test compound alone or with β-lactamase inhibitor at 4 μg/mL. A digest of the protocol:
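Broth microdilution MIC against K. pneumoniae Y-1133 (NDM-1, OXA-48, CTX-M-15), test compound alone or combined with a β-lactamase inhibitor at 4 μg/mL.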

The test system of experiment [4] is Klebsiella pneumoniae Y-1020 strain producing KPC-3 and SHV-12 (strain B). The description is as above. The conditions noted are these: for MIC: Strain B. A digest of the protocol:
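Broth microdilution MIC of test compound tested alone or combined with a β-lactamase inhibitor fixed at 4 μg/mL, against the KPC-3/SHV-12-producing strain.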

The subject of experiment [5] is Escherichia coli TK-1765 strain producing CMY-2 (strain E). The experiment is described as above. As to the method: (§4) By using a broth microdilution method, the combinational effect of a test compound and a β-lactamase inhibitor was evaluated.
as §2
Escherichia coli TK-1765 strain producing CMY-2 (hereinafter, called strain E)

Experiment [6] relates to Escherichia coli TK-1747 strain producing CTX-M-15 (strain A). The experiment is described as above. As to the method:
as §4, §2
Escherichia coli TK-1747 strain producing CTX-M-15 (hereinafter, called strain A),

Experiment [7] has as its system Escherichia coli TK-3113 strain producing IMP-8 (strain D). The description is as above. A digest of the protocol:
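Broth microdilution MIC of the test compound, run alone and with a β-lactamase inhibitor fixed at 4 μg/mL. Strains were IMP-8-producing E. coli TK-3113 and other β-lactamase producers, including K. pneumoniae Y-1069 carrying OXA-48 and CTX-M-15.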

In experiment [8] the test system is Escherichia coli ATCC25922 strain (Escherichia coli A). In words: Combinational effect of test compound and antibacterial compound, checkerboard FIC index. As to the method:
(§5) By using a broth microdilution method, the combinational effect of antibacterial activity of a test compound and an antibacterial compound was evaluated.
(§6) As bacterial strains, an Escherichia coli ATCC25922 strain (hereinafter, called Escherichia coli A), a Klebsiella pneumoniae ATCC13883 strain (hereinafter, called Klebsiella pneumoniae A), and a Pseudomonas aeruginosa ATCC27853 strain (hereinafter, called Pseudomonas aeruginosa A) were used.
(§7) The minimum inhibitory concentration (hereinafter, called MIC) was measured according to the Clinical and Laboratory Standards Institute (CLSI) standard method by using the following broth microdilution method.
(§8) The bacterial cells that had been cultured overnight on a Mueller Hinton agar medium were scraped off, suspended at a density equivalent to 0.5 McFarland standard. The obtained suspension was diluted at 10 fold, thereby obtaining an inoculum. Cation-adjusted Mueller Hinton media containing only a test compound, containing only an antibacterial compound, or containing a test compound and an antibacterial compound were inoculated with 0.005 mL of the inoculum, and the cells were cultured at 35° C. for 18 to 20 hours. The minimum drug concentration at which the growth of bacteria was not visually observed was defined as MIC (μg/mL).
(§9) The FIC Index is the minimum value calculated by the following formula.
(§10) FIC Index=(MIC value obtained in a case where test compound is used in combination/MIC value obtained in a case where test compound is used alone)+(MIC value obtained in a case where antibacterial compound is used in combination/MIC value obtained in a case where antibacterial compound is used alone)
(§11) In a case where the FIC Index was 0.5 or less, it was decided that the use of two drugs in combination brings about a synergistic effect.
(§12) In a case where the FIC Index was more than 0.5 and 1 or less, it was decided that the use of two drugs in combination brings about an additive effect. (Diagnostic Microbiology and Infectious Disease, 2004, Vol. 49, p. 197)

Experiment [9] has as its system Klebsiella pneumoniae ATCC13883 strain (Klebsiella pneumoniae A). The experiment is described as above. As to the method:
as §5, §6, §7, §8, §9, §10, §11, §12

Experiment [10] has as its system Pseudomonas aeruginosa ATCC27853 strain (Pseudomonas aeruginosa A). The description is as above. Conditions: for FIC index: Pseudomonas aeruginosa A, checkerboard. How it is done:
as §5, §6, §7, §8, §9, §10, §11, §12

The mark [11] stands for this setting: Table 48, against the Carbapenem-resistant Acinetobacter A514 and A515 strains (so in the source), read-out: MIC.
The mark [12] stands for this setting: Table 49, against the Carbapenem-resistant Acinetobacter A515 strain, read-out: MIC.
The mark [13] stands for this setting: test compound alone (β-lactamase inhibitor N/A).

The values that follow come from patent publication US20220241249A1, “PHARMACEUTICAL COMPOSITION AND KIT CONTAINING NOVEL PENAM DERIVATIVE OR SALT THEREOF AND ONE OR MORE COMPOUNDS SELECTED FROM beta-LACTAMASE INHIBITORY COMPOUND AND ANTIBACTERIAL COMPOUND OR SALTS THEREOF” (priority 2019, published 2022).

Where two headings read alike, the source gives them in different places.

Consider `NC(=O)[C@@H]1CC[C@@H]2CN1C(=O)N2OS(=O)(=O)O` [AVI, avibactam sodium], for which the MIC in experiment [1] (setting [11]) and in experiment [2] (setting [12]) was over 32 µg/mL in each case.
`C[C@@H](O)[C@H]1C(=O)N2C(C(=O)O)=C(S[C@@H]3CN[C@H](C(=O)N(C)C)C3)[C@H](C)[C@H]12` [MEPM, meropenem hydrate, reference compound]: the MIC in experiment [1] (setting [11]) is over 32 µg/mL; in [2] (setting [12]), over 32 µg/mL; in [3] (Klebsiella pneumoniae, test compound alone (β-lactamase inhibitor N/A)), over 128 µg/mL; in [4] (Klebsiella pneumoniae, test compound alone (β-lactamase inhibitor N/A), read-out: MIC), 32 µg/mL.
Turning to `CC(C)(O/N=C(\C(=O)N[C@@H]1C(=O)N2C[C@@](C(=O)O)(N3CCN(NC(=O)C(=O)c4ccc(O)c(O)c4Cl)C3=O)S[C@H]12)c1csc(N)n1)C(=O)O` [Compound A], the MIC in experiment [5] (setting [13]) was 1 µg/mL; in [5] (with AVI at 4 μg/mL), 0.06 µg/mL; in experiment [5] (with SBT at 4 μg/mL), 0.5 µg/mL; in [5] (with TAZ at 4 μg/mL) it was 0.25 µg/mL; in [5] (with VAB at 4 μg/mL), 0.12 µg/mL; in experiment [3] (AVI added at 4 μg/mL), 0.12 µg/mL. For the same compound, the MIC in [3] (NAC added at 4 μg/mL) is 0.03 µg/mL; in [3] (ZID added at 4 μg/mL), under 0.015 µg/mL; in experiment [3] (setting [13]), 0.5 µg/mL; in [4] (AVI added at 4 μg/mL), 0.25 µg/mL; in experiment [4] (NAC added at 4 μg/mL), under 0.015 µg/mL; in [4] (VAB added at 4 μg/mL) it was 1 µg/mL. For the same compound, the MIC in experiment [4] (ZID added at 4 μg/mL) is under 0.015 µg/mL; in [4] (setting [13]), 2 µg/mL; in experiment [6] (AVI added at 4 μg/mL) it was under 0.015 µg/mL; in experiment [6] (CVA added at 4 μg/mL), under 0.015 µg/mL; in experiment [6] (NAC added at 4 μg/mL), under 0.015 µg/mL; in experiment [6] (SBT added at 4 μg/mL) it was under 0.015 µg/mL. Moreover, the MIC in experiment [6] (TAZ added at 4 μg/mL) was under 0.015 µg/mL; in experiment [6] (VAB added at 4 μg/mL), 0.06 µg/mL; in [6] (ZID added at 4 μg/mL), under 0.015 µg/mL; in experiment [6] (setting [13]), 0.12 µg/mL; in [7] (NAC added at 4 μg/mL) it was 0.06 µg/mL; in experiment [7] (ZID added at 4 μg/mL), under 0.015 µg/mL. The MIC in experiment [7] (setting [13]) turned out to be 0.5 µg/mL. In experiment [2] (against all the bacterial strains (Acinetobacter A514 and A515), with SBT and AVI), the “antibacterial activity in combination with two β-lactamase inhibitors” value is recorded as “High antibacterial activity”. The “antibacterial activity in combination with a β-lactamase inhibitor versus without” value in experiment [4] (for all the bacterial strains (strains A to E), summary of Tables 43 to 47) is “higher antibacterial activity”. In addition, the FIC index in [8] (in combination with AMK) is listed as 0.5625; in experiment [8] (in combination with CAZ) it was 0.625; in experiment [8] (in combination with IPM), 0.5156; in experiment [8] (in combination with LVFX) it was 0.75; in experiment [8] (in combination with MPC), 0.5078; in experiment [8] (in combination with PIPC), 0.5625. For the same compound, the FIC index in [8] (in combination with RFP) came out at 0.625; in [8] (in combination with TC) it was 0.75; in experiment [8] (in combination with TMP) it was 0.625; in [9] (in combination with CAZ) it was 0.625; in experiment [9] (in combination with IPM), 0.375; in experiment [9] (in combination with LVFX), 0.75. Moreover, the FIC index in [9] (in combination with MPC) is on record as under 0.5; in experiment [9] (in combination with PIPC), 0.375; in [9] (in combination with PL-B), 0.125; in experiment [9] (in combination with RFP), 0.502; in experiment [9] (in combination with TMP) it was 0.375; in experiment [10] (in combination with AMK), 0.5. Also, the FIC index came out at 0.5625 in experiment [10] (in combination with CAZ); 0.252 in experiment [10] (in combination with IPM); 0.5625 in [10] (in combination with LVFX); 0.5 in experiment [10] (in combination with PIPC); 0.625 in experiment [10] (in combination with PL-B); 0.281 in experiment [10] (in combination with RFP). The FIC index in experiment [10] (in combination with TC) worked out at 0.375. Besides, the “combinational effect with other antibacterial compounds” value in experiment [10] (main strains of Gram-negative bacteria, summary of Tables 40 to 42) is “additive or synergistic effect”.
Take `CC1(C)[C@H](C(=O)O)N2C(=O)C[C@H]2S1(=O)=O` [SBT, sulbactam sodium]: the MIC in [1] (Acinetobacter) and in [2] (Acinetobacter) was over 32 µg/mL each time.

One may read the MIC as the least concentration at which growth counts as inhibited.
